The values below come from article PMC4302242 (Psychopharmacology, 2014).

Non-standard residues stand in square brackets, D forms with d. Residues, ends and D or L forms follow the SMILES beside them. Where only a bound is given, the exact number is not on record here.

In data set [1] the test system is C57Bl/6J mice. The following applies: for FST immobility time, subchronic treatment: 10 μg/kg i.v. once a day for 4 days, test on day 5, mean ± SEM, saline 161.80 ± 8.12 s; for FST immobility time, acute treatment: 10 μg/kg single i.v. bolus, 30 min before the test, saline 166.13 ± 5.54 s; for FST immobility time, acute treatment / FST immobility time 1 h after injection (action duration): n = 10, mean ± SEM; for FST immobility time 1 h after injection (action duration): naïve mice at each time; for FST immobility time 1 h after injection (action duration) / FST immobility time 16 h after injection (action duration): saline 170.3 ± 4.5 s (spadin series), 162.7 ± 4.7 s (analog series); for FST immobility time 16 h after injection (action duration): naïve mice, mean ± SEM.
Protocol: Naïve male C57Bl/6J mice from 7 to 9 weeks old were used in all experiments (Janvier Laboratory, Saint Berthevin, France). Mice were housed (10 animals per cage) under a 12:12 light–dark cycle (light on at 8:00 am) in a ventilated room at a temperature of 22 ± 1 °C. Animals had free access to water and food (A03; SAFE, Augy, France). All experiments were conducted according to policies on the care and use of laboratory animals of the Society for Neuroscience and also with respect to national laws on animal use.
(§1) For acute treatment, drugs were administered in a single 100-μL bolus 30 min prior to the beginning of the behavioral tests. For subchronic treatment, drugs were injected during four consecutive days, and behavioral tests were performed on day 5, without additional injection.
The animals were individually placed in a non-escapable cylinder (height 30 cm, diameter 15 cm) filled with 15-cm water at 22 ± 1 °C. The trial was conducted for 6 min. The total period of immobility was manually measured during the last 4 min of the test. A mouse was considered immobile when it remained floating with only slight movements to keep its head above water.

Data set [2] has as its system C57Bl/6J mice. The following applies: 10 μg/kg i.v. once a day for 4 days, test on day 5, mean ± SEM; saline 305.00 ± 62.47 s.
Protocol: Naïve male C57Bl/6J mice from 7 to 9 weeks old were used in all experiments (Janvier Laboratory, Saint Berthevin, France). Mice were housed (10 animals per cage) under a 12:12 light–dark cycle (light on at 8:00 am) in a ventilated room at a temperature of 22 ± 1 °C. Animals had free access to water and food (A03; SAFE, Augy, France).
as §1
The NSF paradigm is a 2-day test protocol. On day 1, mice were deprived from food. On day 2, mice were placed in a highly brightly lit area, in a plastic box (45 × 45 × 20 cm), with a floor covered with wooden bedding. The test was carried out during a 10-min period. During this time, the latency to eat was measured. During the test, a single pellet of food was placed in the center of the box, on a white platform.
Data set [3] concerns the target T1, human TREK-1 channel (Homo sapiens, UniProt O95069). The following applies: h-TREK-1/HEK cells, current at 0 mV, n = 10 to 12.
Protocol: (§2) The human-TREK-1/HEK293 cell line (h-TREK-1/HEK) (Moha ou Maati et al. [2011a]) and HEK-IKS cell line (Ducroq et al. [2010]) were grown in the presence of 0.5 mg/mL G418 in Dulbecco’s modified Eagle’s medium supplemented with 10 % (v/v) heat-inactivated fetal bovine serum containing 1 % (v/v) penicillin/streptomycin in an atmosphere of 95 % air/5 % CO2 as previously described (Moha ou Maati et al. [2011a]).
(§3) All electrophysiological experiments were performed on h-TREK-1/HEK cells seeded at a density of 20,000 cells/35 mm dish after 2–6 days of culture. All electrophysiological recordings were performed in whole cell configuration of the patch clamp technique except for IKS measures which were obtained by using the patch clamp perforated configuration (amphotericin B 0.9 mg/mL in the pipette medium) (Moha ou Maati et al. [2011b]). Each current was evaluated by using a RK 400 patch clamp amplifier (Axon Instrument, USA), low-pass filtered at 3 kHz, and digitized at 10 kHz using a 12-bit analog-to-digital converter digidata (1322 series, Axon Instrument, USA). All current amplitudes are expressed in current densities. Results are expressed as mean ± standard error of the mean (SEM). […] The bath solution contained (in mM) 150 NaCl, 5 KCl, 3 MgCl2, 1 CaCl2, and 10 4-(2-hydroxyethyl)piperazine 1- ethane sulfonic acid (HEPES) adjusted to pH 7.4 with NaOH. The pipette solution contained (in mM) 155 KCl, 3 MgCl2, 5 EGTA, and 10 HEPES adjusted to pH 7.2 with KOH. TREK-1 currents were evaluated at room temperature (21–22 °C) in the presence of a cocktail of potassium channel inhibitors (K^+ blockers, 3 mM 4-aminopyridine (4-AP), 10 mM tetraethylammonium (TEA), 10 μM glibenclamide, 100 nM apamin, and 50 nM charybdotoxin). Stimulation protocols and data acquisition were carried out using a microcomputer (Dell Pentium) with a commercial software and hardware (pClamp 8.2). Currents were recorded by voltage clamp steps to membrane potentials of −100 to +60 mV in 20-mV steps applied from a holding potential of −80 mV. The duration of depolarization pulses was 825 ms, and the pulse cycling rate was 5 s. TREK-1 current amplitudes were evaluated at the end of stimulation pulses. Cells were continuously superfused with microperfusion system.
(§4) All experiments were performed on h-TREK-1/HEK cell line in the presence of a mixture of K^+ channels blockers and by using the whole cell configuration of the patch clamp technique. a Control currents (black-filled circles, K^+ blockers) were amplified by the application of 10 μM of arachidonic acid (white-filled circles, K^+ blockers + AA).
The test system of data set [4] is C57Bl/6J mice. The following applies: water bath 48 °C, 10 μg/kg i.v. 30 min before the test, n = 10 per group, two determinations averaged, mean ± SEM; saline 12.75 ± 0.96 s.
Protocol: The tail was immersed in a water bath at 48 °C until withdrawal was observed (cutoff time 30 s). Two separate withdrawal latency time determinations were averaged (Alloui et al. [2006]).
For each mouse, the time to withdraw its tail immersed in a water bath at 48 °C was measured twice and averaged.
For data set [5], the target named is T1, human TREK-1 channel. Description: cell-based.
Protocol: as §2, §3, §4
In another data set the target is hERG channel (IKR) (Homo sapiens, UniProt Q12809). The following applies: 10 μM.
Chain of hERG channel (IKR) (Q12809 whole entry): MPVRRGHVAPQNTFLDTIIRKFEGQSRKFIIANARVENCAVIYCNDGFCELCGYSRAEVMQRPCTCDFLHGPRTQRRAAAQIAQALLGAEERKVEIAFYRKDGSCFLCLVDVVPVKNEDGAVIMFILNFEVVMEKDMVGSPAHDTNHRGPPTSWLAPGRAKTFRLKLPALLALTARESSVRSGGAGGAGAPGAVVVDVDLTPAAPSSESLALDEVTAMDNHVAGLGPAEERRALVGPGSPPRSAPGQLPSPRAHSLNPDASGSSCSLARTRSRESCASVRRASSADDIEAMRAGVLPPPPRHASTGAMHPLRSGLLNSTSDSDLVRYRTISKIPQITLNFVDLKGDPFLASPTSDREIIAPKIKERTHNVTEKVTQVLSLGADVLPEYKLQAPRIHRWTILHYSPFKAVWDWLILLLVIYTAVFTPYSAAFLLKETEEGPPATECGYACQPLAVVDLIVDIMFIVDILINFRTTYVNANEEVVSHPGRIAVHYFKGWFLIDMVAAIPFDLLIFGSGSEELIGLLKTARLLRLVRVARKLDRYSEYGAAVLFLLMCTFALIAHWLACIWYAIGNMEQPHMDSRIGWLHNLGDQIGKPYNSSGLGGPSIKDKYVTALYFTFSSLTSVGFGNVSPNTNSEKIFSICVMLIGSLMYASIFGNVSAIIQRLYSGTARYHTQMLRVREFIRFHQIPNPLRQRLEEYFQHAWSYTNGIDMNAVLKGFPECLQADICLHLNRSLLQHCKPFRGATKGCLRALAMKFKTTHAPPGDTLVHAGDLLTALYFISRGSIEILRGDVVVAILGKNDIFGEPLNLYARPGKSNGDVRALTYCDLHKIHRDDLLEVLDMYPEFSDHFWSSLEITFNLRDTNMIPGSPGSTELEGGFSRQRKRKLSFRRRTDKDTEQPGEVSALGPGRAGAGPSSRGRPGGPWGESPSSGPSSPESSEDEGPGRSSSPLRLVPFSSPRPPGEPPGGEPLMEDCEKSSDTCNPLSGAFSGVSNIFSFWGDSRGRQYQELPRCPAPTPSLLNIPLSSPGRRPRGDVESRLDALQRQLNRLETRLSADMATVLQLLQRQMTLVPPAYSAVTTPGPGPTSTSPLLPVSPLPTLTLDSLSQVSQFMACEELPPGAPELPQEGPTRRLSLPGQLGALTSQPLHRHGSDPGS
Data set [6] concerns C57Bl/6J mice. The following applies: 10^-5 M in 100 μL bolus i.v. 30 min before the test, monitored 24 h, n = 8 per group.
Protocol: Locomotor activity was monitored individually for 24 h using an infrared photobeam activity monitoring system (Imetronic, Pessac, France), which measured consecutive horizontal beam breaks. […] Locomotor activity was defined as breaking of consecutive photobeams. Movements were recorded and totalized for each 10-min time section. Six periods were pooled to obtain data for 1 h of time. Different movements were monitored: the coming-and-going between the back and the front of the cage, climbing, and other movements in the back or the front of the cage. Mice were kept under standard laboratory conditions: 12:12 light–dark cycle with free access to food and water during the experiment.
Mice were injected 30 min before to be placed in an infrared photobeam activity monitoring system. Spontaneous locomotor activity was monitored individually for 24 consecutive hours. The number of coming-and-going (a), climbing (b), and total movements except climbing (c) were monitored for each mouse for 10 min section and pooled by 6 to obtain values corresponding to 1 h.
Data set [7] relates to C57Bl/6J mice. The following applies: kaïnate 25 mg/kg i.p.
Protocol: Kaïnate solutions were prepared in a solution of 140 mM NaCl (saline solution).
Mice (n = 10 per group) were monitored during 2 h for onset and extent of seizures. Six levels of seizure severity were defined: (1) immobility, (2) head/neck movements, (3) clonic unilateral activity, (4) clonic bilateral activity, (5) generalized convulsions, and (6) death. Seizure severity was blindly scored (Tsirka et al. [1995]). The seizure index was calculated by averaging the points for seizure activity in each group (n = 10 per treatment).
For the next data set, the target named is human-IKS current (Homo sapiens, UniProt P51787). The following applies: 10 μM.
Chain of human-IKS current (P51787 whole entry): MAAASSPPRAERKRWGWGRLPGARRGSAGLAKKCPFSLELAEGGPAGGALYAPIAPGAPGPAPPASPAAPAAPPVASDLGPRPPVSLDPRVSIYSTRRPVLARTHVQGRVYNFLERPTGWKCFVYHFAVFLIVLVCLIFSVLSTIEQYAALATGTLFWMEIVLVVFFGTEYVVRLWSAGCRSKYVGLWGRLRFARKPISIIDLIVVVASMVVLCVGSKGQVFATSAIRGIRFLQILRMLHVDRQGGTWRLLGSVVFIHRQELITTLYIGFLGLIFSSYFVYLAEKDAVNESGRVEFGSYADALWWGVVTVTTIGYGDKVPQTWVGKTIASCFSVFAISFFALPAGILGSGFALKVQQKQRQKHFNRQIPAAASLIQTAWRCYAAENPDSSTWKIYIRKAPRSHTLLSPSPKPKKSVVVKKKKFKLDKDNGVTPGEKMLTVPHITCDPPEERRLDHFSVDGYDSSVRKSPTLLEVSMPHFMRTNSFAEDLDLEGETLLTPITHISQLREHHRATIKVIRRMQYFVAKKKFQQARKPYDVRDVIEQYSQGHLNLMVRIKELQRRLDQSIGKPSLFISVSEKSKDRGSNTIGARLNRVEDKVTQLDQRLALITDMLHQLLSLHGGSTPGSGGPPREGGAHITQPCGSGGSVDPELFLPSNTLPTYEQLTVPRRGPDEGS
The test system of data set [8] is C57Bl/6J mice. The following applies: 10 μg/kg i.v. for four consecutive days, hippocampal dentate gyrus.
Protocol: One day after 5-bromo-2′-deoxyuridine (BrdU) injections, 12 mg per animal divided in four bolus of 300 μL injected every 2 h, mice were anesthetized with isoflurane and transcardially perfused with 20 mL of NaCl 0.9 % followed by 20 mL paraformaldehyde 4 %/NaCl 0.9 %. By using a vibratome (Leica), brains were cut into 40-μm sections, throughout the entire hippocampus. […] For each BrdU labeling, slices were first incubated with a mouse monoclonal anti-BrdU antibody (1/8,000, Becton Dickinson). For chromogenic immunodetection, sections were incubated during 2 h in biotin-conjugated species-specific secondary antibodies (1/400; Vector laboratories) followed by a peroxidase-avidin complex solution, to amplify the reaction. The peroxidase activity of immune complex was visualized with DAB staining using the VectaStain ABC kit according to the manufacturer’s protocol (Vector Laboratories).

T1 sequence (O95069 whole entry): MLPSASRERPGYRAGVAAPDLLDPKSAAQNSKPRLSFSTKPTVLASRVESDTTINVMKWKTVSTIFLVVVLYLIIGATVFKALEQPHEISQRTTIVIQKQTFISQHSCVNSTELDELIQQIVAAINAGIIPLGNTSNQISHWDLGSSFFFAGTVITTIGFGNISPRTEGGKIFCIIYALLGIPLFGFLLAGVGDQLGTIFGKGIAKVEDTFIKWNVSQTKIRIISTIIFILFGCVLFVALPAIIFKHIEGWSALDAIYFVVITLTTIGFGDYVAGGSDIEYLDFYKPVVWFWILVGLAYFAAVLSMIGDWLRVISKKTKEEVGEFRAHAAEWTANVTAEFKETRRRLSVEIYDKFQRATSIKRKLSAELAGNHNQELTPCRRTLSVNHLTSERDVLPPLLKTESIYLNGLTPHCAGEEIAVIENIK
Protocol for hERG channel (IKR): HEK-293 native cells were grown in serum in an atmosphere of 95 % air/5 % CO2 in Dulbecco’s modified Eagle’s medium supplemented with 10 % (v/v) heat-inactivated fetal bovine containing 1 % (v/v) of penicillin/ streptomycin and Glutamax X 1. Cells were plated at a density of 20,000 cells/35 mm dish, and after 24 h, cells were transfected using the Jet PEI method (Polyplus, France) with 25 ng/35 mm dish of p-IRES-HERG channel vector. Patch clamp experiments were carried out 48 h after transfection.
All electrophysiological recordings were performed in whole cell configuration of the patch clamp technique except for IKS measures which were obtained by using the patch clamp perforated configuration (amphotericin B 0.9 mg/mL in the pipette medium) (Moha ou Maati et al. [2011b]). Each current was evaluated by using a RK 400 patch clamp amplifier (Axon Instrument, USA), low-pass filtered at 3 kHz, and digitized at 10 kHz using a 12-bit analog-to-digital converter digidata (1322 series, Axon Instrument, USA). All current amplitudes are expressed in current densities. Results are expressed as mean ± standard error of the mean (SEM). […] The bath solution contained (in mM) 150 NaCl, 5 KCl, 3 MgCl2, 1 CaCl2, and 10 4-(2-hydroxyethyl)piperazine 1- ethane sulfonic acid (HEPES) adjusted to pH 7.4 with NaOH. The pipette solution contained (in mM) 155 KCl, 3 MgCl2, 5 EGTA, and 10 HEPES adjusted to pH 7.2 with KOH. […] Stimulation protocols and data acquisition were carried out using a microcomputer (Dell Pentium) with a commercial software and hardware (pClamp 8.2). Currents were recorded by voltage clamp steps to membrane potentials of −100 to +60 mV in 20-mV steps applied from a holding potential of −80 mV. The duration of depolarization pulses was 825 ms, and the pulse cycling rate was 5 s. […] Cells were continuously superfused with microperfusion system.
Tail currents were generated by repolarization to −40 mV. […] The amplitudes of IKS and IKR currents were calculated at both the end of the first pulse and the peak of the tail pulse.
Protocol for human-IKS current: as §2
All electrophysiological recordings were performed in whole cell configuration of the patch clamp technique except for IKS measures which were obtained by using the patch clamp perforated configuration (amphotericin B 0.9 mg/mL in the pipette medium) (Moha ou Maati et al. [2011b]). Each current was evaluated by using a RK 400 patch clamp amplifier (Axon Instrument, USA), low-pass filtered at 3 kHz, and digitized at 10 kHz using a 12-bit analog-to-digital converter digidata (1322 series, Axon Instrument, USA). All current amplitudes are expressed in current densities. Results are expressed as mean ± standard error of the mean (SEM). […] The bath solution contained (in mM) 150 NaCl, 5 KCl, 3 MgCl2, 1 CaCl2, and 10 4-(2-hydroxyethyl)piperazine 1- ethane sulfonic acid (HEPES) adjusted to pH 7.4 with NaOH. The pipette solution contained (in mM) 155 KCl, 3 MgCl2, 5 EGTA, and 10 HEPES adjusted to pH 7.2 with KOH. […] Stimulation protocols and data acquisition were carried out using a microcomputer (Dell Pentium) with a commercial software and hardware (pClamp 8.2). […] Cells were continuously superfused with microperfusion system.
IKS currents were activated by voltage clamp steps of membrane potentials from −100 to +100 mV in 20-mV steps applied from a holding potential of −80 mV. Tail currents were generated by repolarization to −40 mV. Duration of both depolarization and repolarization pulses was 2.4 s, and the pulse cycling rate was 10 s. […] The amplitudes of IKS and IKR currents were calculated at both the end of the first pulse and the peak of the tail pulse.

On to `CC[C@@H](C)[C@@H](NC(=O)CNC(=O)[C@H](NC(=O)[C@@H](CO)NC(=O)[C@@H](Cc1c[nH]c2ccccc12)NC(=O)CNC(=O)[C@@H](CC(C)C)NC(=O)[C@@H](CCCNC(=N)N)NC(C)=O)C(C)C)C(=O)N1CCC[C@@H]1C(=O)NCC(=O)N[C@H](CO)C(=O)N[C@H](Cc1c[nH]c2ccccc12)C(=O)N[C@H](CCCNC(=N)N)C(=O)N1CCC[C@@H]1C(=O)N[C@H](CC(C)C)C(=O)N1CCC[C@@H]1C(=O)N[C@H](C)C(=O)N[C@H](C)C(=O)N1CCC[C@@H]1C(=O)N1CCC[C@@H]1C(=O)N1CCC[C@@H]1C(=O)N1CCC[C@@H]1C(=O)N[C@H](C)C(=O)N[C@H](CC(=O)O)C(=O)N[C@H](CC(C)C)C(=O)N[C@H](CCCNC(=N)N)C(=O)N[C@H](CC(=O)O)C(=O)N[C@H](CCC(N)=O)C(N)=O` [analog 8] (Ac-[dR][dL]G[dW][dS][dV]G[dI][dP]G[dS][dW][dR][dP][dL][dP][dA][dA][dP][dP][dP][dP][dA][dD][dL][dR][dD][dQ]-NH2), for which, in the data set with C57Bl/6J mice [1], the “FST immobility time, subchronic treatment” value is 124.1 ± 10.53 s; the “FST immobility time, acute treatment” value is given as 83.60 ± 9.01 s; the “FST immobility time 1 h after injection (action duration)” value (shortened to “FST immobility time 1 h after injection”) turned out to be 121.7 ± 5.2 s; the “FST immobility time 16 h after injection (action duration)” value (“FST immobility time 16 h after injection” for short) came to 129.1 ± 12.0 s. Also, in the data set with C57Bl/6J mice [2], the “NSF latency to feed, subchronic treatment” value (“NSF latency to feed” for short) was determined as 167.00 ± 22.96 s. In addition, at human TREK-1 channel [3], the “TREK-1 blockade at 100 nM compared with spadin (in words)” value is “increased blockade effect when compared to spadin”. For the same compound, the Tail withdrawal time with C57Bl/6J mice [4] turned out to be 13.85 ± 0.72 s. Further, the IC50 against human TREK-1 channel [5] was determined as 9.95 ± 0.85 nM.

Regarding “Ac-APPPPAAPLPRWSGPIGVSWGLR-NH2 [analog 9]”, on human TREK-1 channel [3], the “TREK-1 blockade at 100 nM compared with spadin (in words)” value is on record as “inhibitory effect close to that of spadin”.

For the compound “Ac-[dR][dR][dW][dR]GG[dR][dP][dF][dA]GG[dA][dA][dA][dA][dR][dL]G[dW][dS][dV]G[dI][dP]G[dS][dW][dR][dP][dL][dP][dA][dA][dP][dP][dP][dP][dA][dD][dL][dR][dD][dQ]-NH2 [analog 12]”, the “TREK-1 blockade at 100 nM compared with spadin (in words)” value on human TREK-1 channel [3] is listed as “did not display a better efficacy”.

On human TREK-1 channel [5], Ac-APLPRWSGPIGVSWGLR-NH2 [analog 2] yielded an IC50 of 60 ± 0.41 nM.

Take `CC[C@@H](C)[C@@H](NC(=O)CNC(=O)[C@H](NC(=O)[C@@H](CO)NC(=O)[C@@H](Cc1c[nH]c2ccccc12)NC(=O)CNC(=O)[C@@H](CC(C)C)NC(=O)[C@@H](CCCNC(=N)N)NC(C)=O)C(C)C)C(=O)N1CCC[C@@H]1C(=O)NCC(=O)N[C@H](CO)C(=O)N[C@H](Cc1c[nH]c2ccccc12)C(=O)N[C@H](CCCNC(=N)N)C(=O)N1CCC[C@@H]1C(=O)N[C@H](CC(C)C)C(=O)N1CCC[C@@H]1C(=O)N[C@H](C)C(N)=O` [analog 3] (Ac-[dR][dL]G[dW][dS][dV]G[dI][dP]G[dS][dW][dR][dP][dL][dP][dA]-NH2): in the data set with C57Bl/6J mice [1], the “FST immobility time, subchronic treatment” value is listed as 114.9 ± 9.82 s; the “FST immobility time, acute treatment” value came to 135.10 ± 8.11 s; the “FST immobility time 1 h after injection” value is 123.4 ± 7.0 s; the “FST immobility time 16 h after injection” value is 129.6 ± 12.7 s. The “Effect on IKR current” value on hERG channel (IKR) (HEK cells expressing hERG) was “did not modify currents”. The “IKR tail current density at 0 mV in the presence of the analog” value at hERG channel (IKR) (n = 5, mean ± SEM, control 204.59 ± 34.18 pA/pF) is given as 212.99 ± 38.38 pA/pF. The “IKR current density at 0 mV, end of first pulse, in the presence of the analog” value on hERG channel (IKR) (n = 5, mean ± SEM, control 225.14 ± 33.09 pA/pF) stood at 224.48 ± 35.94 pA/pF. Besides, the “NSF latency to feed” value in the data set on C57Bl/6J mice [2] amounted to 143.88 ± 23.42 s. For the same compound, the “Locomotor activity versus saline-treated mice (coming-and-going, climbing, total movements)” value in the data set on C57Bl/6J mice [6] was “no significant difference”. For the same compound, the “Effect on kaïnate-triggered seizures, 1 μg/kg” value with C57Bl/6J mice [7] (1 μg/kg i.v., n = 10) was “no protective effect”. Also, the “Effect on kaïnate-triggered seizures, 10 μg/kg” value in the data set on C57Bl/6J mice [7] (10 μg/kg i.v., n = 10, monitored 2 h) was “important protective effect”. In addition, the “Number of mice reaching the two less severe seizure stages (immobility, head or neck movements)” value in the data set on C57Bl/6J mice [7] (10 μg/kg i.v., n = 10, saline: at least 9 among 10, five died) is recorded as “two mice among 10”. For the same compound, the “TREK-1 blockade at 100 nM compared with spadin (in words)” value on human TREK-1 channel [3] is on record as “increased blockade effect when compared to spadin”. For the same compound, the Tail withdrawal time in the data set on C57Bl/6J mice [4] was 11.32 ± 1.04 s. Besides, the “Effect on IKS current” value on human-IKS current (HEK-IKS cells) is “did not modify currents”. Moreover, on human-IKS current (n = 5, mean ± SEM, control 8.33 ± 1.78 pA/pF), the “IKS tail current density at 0 mV in the presence of the analog” value worked out at 8.33 ± 2.06 pA/pF. For the same compound, the “IKS current density at 0 mV, end of pulse, in the presence of the analog” value at human-IKS current (n = 5, mean ± SEM, control 17.65 ± 3.84 pA/pF) was determined as 17.58 ± 4.03 pA/pF. Also, the “Amount recovered in a half brain” value (10 nmol i.v. (100 μL of 100 μM, caudal vein), 30 min after injection, acidic extraction, RP18 HPLC, standard curve 50-200 pmol, estimated) was around 100 pmol. In addition, for the setting “10 nmol i.v., 30 min after injection, amount per brain relative to injected amount”, the “Yield to cross the blood-brain-barrier” value is listed as around 2%. The “Amount recovered per brain” value (10 nmol i.v., 30 min after injection, extrapolated from a half brain) is around 200 pmol. Further, under “10 nmol i.v., 60 min after injection”, the “HPLC peak in brain extract 60 min after injection” value is “disappeared after 60 min”. The compound also yielded an IC50 against human TREK-1 channel [5] of 11.5 ± 0.59 nM.

Turning to `CC[C@H](C)[C@H](NC(=O)[C@@H]1CCCN1C(=O)CNC(=O)[C@H](CO)NC(=O)[C@H](Cc1c[nH]c2ccccc12)NC(=O)[C@H](CCCNC(=N)N)NC(=O)[C@@H]1CCCN1C(=O)[C@H](CC(C)C)NC(=O)[C@@H]1CCCN1C(=O)[C@H](C)NC(=O)[C@H](C)NC(=O)[C@@H]1CCCN1C(=O)[C@@H]1CCCN1C(=O)[C@@H]1CCCN1C(=O)[C@@H]1CCCN1C(=O)[C@H](C)NC(=O)[C@H](CC(=O)O)NC(=O)[C@H](CC(C)C)NC(=O)[C@H](CCCNC(=N)N)NC(=O)[C@H](CC(=O)O)NC(=O)[C@H](CCC(N)=O)NC(C)=O)C(=O)NCC(=O)N[C@H](C(=O)N[C@@H](CO)C(=O)N[C@@H](Cc1c[nH]c2ccccc12)C(=O)NCC(=O)N[C@@H](CC(C)C)C(=O)N[C@@H](CCCNC(=N)N)C(N)=O)C(C)C` [analog 7], at human TREK-1 channel [3], the “TREK-1 blockade at 100 nM compared with spadin (in words)” value was “bad inhibitor of TREK-1 channels”.

With “Ac-QDRLDAPPPPAAPLPRWSGPIGVSWGLRAAAAGGAFPRGGRWRR-NH2 [analog 11]”, the “TREK-1 blockade at 100 nM compared with spadin (in words)” value on human TREK-1 channel [3] was “reduced blocking effect on TREK-1 channels”.

With spadin [reference compound], in the data set on C57Bl/6J mice [1], the “FST immobility time, subchronic treatment” value is given as 123.70 ± 7.16 s; the “FST immobility time, acute treatment” value stood at 107.40 ± 5.05 s; the “FST immobility time 1 h after injection” value was 102.4 ± 6.2 s; the “FST immobility time 16 h after injection” value came to 175.3 ± 7.5 s. In the data set with C57Bl/6J mice [1] (3 h after injection (order of values follows order of times), saline 170.3 ± 4.5 s), the “FST immobility time 3 h after injection (action duration)” value is listed as 113.2 ± 5.0 s. For the same compound, the “FST immobility time 7 h after injection (action duration)” value with C57Bl/6J mice [1] (7 h after injection (order of values follows order of times), saline 170.3 ± 4.5 s) is given as 150.8 ± 6.5 s. The “Biological half-life time measured by the FST” value with C57Bl/6J mice [1] (from loss of FST efficacy with time after injection) is on record as “around 6 h”. In addition, in the data set with C57Bl/6J mice [2], the “NSF latency to feed” value is listed as 151.11 ± 17.70 s. Moreover, the “Increase of the number of BrdU-positive cells in SGZ versus saline (factor)” value in the data set with C57Bl/6J mice [8] is at least 2.
